Results on ten compounds are retold here after the supplement of paper PMC10627819.

Holding throughout (assay): Bliss interaction score (quartile over a dose matrix) (fitness difference); higher = more antagonism (negative = synergy)
One test deals with S. aureus DSM 20231. Summed up: (§1)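 Each OD595 reading at entry into stationary phase was scaled to the robust mean of the untreated wells on its plate, with a ceiling of 1. These ratios define fitness, and single-drug fitness was inferred from combinations. The Bliss score compares observed fitness with the product-based expectation and is reported as quartiles across all replicate types, technical, biological and donor/recipient.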

Another test has as its system S. pneumoniae D39V. Summed up:
as §1

In the next test the test system is B. subtilis 168. Summed up: as §1
In another test the test system is S. aureus Newman. Summed up:
as §1
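Note: first quartile when negative (synergy) and third quartile when positive (antagonism).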

On to `CC[C@H]1OC(=O)[C@H](C)[C@@H](O[C@H]2C[C@@](C)(OC)[C@@H](O)[C@H](C)O2)[C@H](C)[C@@H](O[C@@H]2O[C@H](C)C[C@H](N(C)C)[C@H]2O)[C@](C)(O)C[C@@H](C)C(=O)[C@H](C)[C@@H](O)[C@]1(C)O` [Erythromycin] + CC[C@H]1OC(=O)[C@H](C)C(=O)[C@H](C)[C@@H](O[C@@H]2O[C@H](C)C[C@H](N(C)C)[C@H]2O)[C@](C)(OC)C[C@@H](C)C(=O)[C@H](C)[C@H]2N(CCCCn3cnc(-c4cccnc4)c3)C(=O)O[C@]12C [Telithromycin], for which the Bliss interaction score with S. aureus DSM 20231 was -0.0237; with S. pneumoniae D39V it was 0.0262; in the test on B. subtilis 168 it was -0.0361; in the test on S. aureus Newman, -0.0283.

For `CC[C@H]1OC(=O)[C@H](C)[C@@H](O[C@H]2C[C@@](C)(OC)[C@@H](O)[C@H](C)O2)[C@H](C)[C@@H](O[C@@H]2O[C@H](C)C[C@H](N(C)C)[C@H]2O)[C@](C)(O)C[C@@H](C)C(=O)[C@H](C)[C@@H](O)[C@]1(C)O` [Erythromycin] + CN1C2=CC=CC=C2N=C3C1=CC=CC3=O [Pyocyanin], the Bliss interaction score was -0.0317 in the test on S. aureus DSM 20231, -0.0454 in the test on S. pneumoniae D39V, 0.0449 with B. subtilis 168 and -0.051 in the test with S. aureus Newman.

Take `CC[C@H]1OC(=O)[C@H](C)[C@@H](O[C@H]2C[C@@](C)(OC)[C@@H](O)[C@H](C)O2)[C@H](C)[C@@H](O[C@@H]2O[C@H](C)C[C@H](N(C)C)[C@H]2O)[C@](C)(O)C[C@@H](C)C(=O)[C@H](C)[C@@H](O)[C@]1(C)O` [Erythromycin] + CN(C)C(=O)C(CCN1CCC(O)(c2ccc(Cl)cc2)CC1)(c1ccccc1)c1ccccc1 [Loperamide]: the Bliss interaction score in the test with S. aureus DSM 20231 is 0.0888; in the test on S. pneumoniae D39V it was 0.116; in the test on B. subtilis 168, 0.0381; with S. aureus Newman, -0.039.

With `CC[C@H]1OC(=O)[C@H](C)[C@@H](O[C@H]2C[C@@](C)(OC)[C@@H](O)[C@H](C)O2)[C@H](C)[C@@H](O[C@@H]2O[C@H](C)C[C@H](N(C)C)[C@H]2O)[C@](C)(O)C[C@@H](C)C(=O)[C@H](C)[C@@H](O)[C@]1(C)O` [Erythromycin] + CN(C)c1cc(NC(=O)CNC(C)(C)C)c(O)c2c1C[C@H]1C[C@H]3[C@H](N(C)C)C(O)=C(C(N)=O)C(=O)[C@@]3(O)C(O)=C1C2=O [Tigecycline], the Bliss interaction score in the test with S. aureus DSM 20231 is -0.0257; in the test on S. pneumoniae D39V, -0.0975; in the test on B. subtilis 168, -0.0505; in the test with S. aureus Newman, -0.0253.

With `CC[C@H]1OC(=O)[C@H](C)[C@@H](O[C@H]2C[C@@](C)(OC)[C@@H](O)[C@H](C)O2)[C@H](C)[C@@H](O[C@@H]2O[C@H](C)C[C@H](N(C)C)[C@H]2O)[C@](C)(O)C[C@@H](C)C(=O)[C@H](C)[C@@H](O)[C@]1(C)O` [Erythromycin] + CN(N=O)C(=O)N[C@@H](C=O)[C@@H](O)[C@H](O)[C@H](O)CO [Streptozotocin], the Bliss interaction score is -0.0271 in the test on S. aureus DSM 20231, -0.0459 in the test on S. pneumoniae D39V, -0.0271 in the test with B. subtilis 168 and -0.0533 with S. aureus Newman.

`CC[C@H]1OC(=O)[C@H](C)[C@@H](O[C@H]2C[C@@](C)(OC)[C@@H](O)[C@H](C)O2)[C@H](C)[C@@H](O[C@@H]2O[C@H](C)C[C@H](N(C)C)[C@H]2O)[C@](C)(O)C[C@@H](C)C(=O)[C@H](C)[C@@H](O)[C@]1(C)O` [Erythromycin] + CN[C@@H]1[C@H](O)[C@H](NC)[C@H]2O[C@@]3(O)C(=O)C[C@@H](C)O[C@H]3O[C@@H]2[C@H]1O [Spectinomycin]: the Bliss interaction score is -0.0696 with S. aureus DSM 20231, -0.0547 in the test with S. pneumoniae D39V, -0.093 with B. subtilis 168 and -0.172 in the test on S. aureus Newman.

As to `CC[C@H]1OC(=O)[C@H](C)[C@@H](O[C@H]2C[C@@](C)(OC)[C@@H](O)[C@H](C)O2)[C@H](C)[C@@H](O[C@@H]2O[C@H](C)C[C@H](N(C)C)[C@H]2O)[C@](C)(O)C[C@@H](C)C(=O)[C@H](C)[C@@H](O)[C@]1(C)O` [Erythromycin] + CN[C@@H]1[C@H](O[C@H]2[C@H](O[C@H]3[C@H](O)[C@@H](O)[C@H](N=C(N)N)[C@@H](O)[C@@H]3N=C(N)N)O[C@@H](C)[C@]2(O)C=O)O[C@@H](CO)[C@H](O)[C@H]1O [Streptomycin], the Bliss interaction score with S. aureus DSM 20231 is 0.0256; in the test with S. pneumoniae D39V, -0.0481; in the test on B. subtilis 168, 0.0844; in the test on S. aureus Newman, -0.0695.

For `CC[C@H]1OC(=O)[C@H](C)[C@@H](O[C@H]2C[C@@](C)(OC)[C@@H](O)[C@H](C)O2)[C@H](C)[C@@H](O[C@@H]2O[C@H](C)C[C@H](N(C)C)[C@H]2O)[C@](C)(O)C[C@@H](C)C(=O)[C@H](C)[C@@H](O)[C@]1(C)O` [Erythromycin] + CN[C@H](CC(C)C)C(=O)N[C@H]1C(=O)N[C@@H](CC(N)=O)C(=O)N[C@H]2C(=O)N[C@H]3C(=O)N[C@H](C(=O)N[C@H](C(=O)O)c4cc(O)cc(O)c4-c4cc3ccc4O)[C@H](O)c3ccc(c(Cl)c3)Oc3cc2cc(c3O[C@@H]2O[C@H](CO)[C@@H](O)[C@H](O)[C@H]2O[C@H]2C[C@](C)(N)[C@H](O)[C@H](C)O2)Oc2ccc(cc2Cl)[C@H]1O [Vancomycin], the Bliss interaction score with S. aureus DSM 20231 is 0.0298; in the test with S. pneumoniae D39V, 0.0403; in the test with B. subtilis 168, 0.035; in the test with S. aureus Newman it was -0.0375.

With `CC[C@H]1OC(=O)[C@H](C)[C@@H](O[C@H]2C[C@@](C)(OC)[C@@H](O)[C@H](C)O2)[C@H](C)[C@@H](O[C@@H]2O[C@H](C)C[C@H](N(C)C)[C@H]2O)[C@](C)(O)C[C@@H](C)C(=O)[C@H](C)[C@@H](O)[C@]1(C)O` [Erythromycin] + CN[C@H](CC(C)C)C(=O)N[C@H]1C(=O)N[C@@H](CC(N)=O)C(=O)N[C@H]2C(=O)N[C@H]3C(=O)N[C@H](C(=O)N[C@H](C(=O)O)c4cc(O)cc(O)c4-c4cc3ccc4O)[C@H](O[C@H]3C[C@](C)(N)[C@@H](O)[C@H](C)O3)c3ccc(c(Cl)c3)Oc3cc2cc(c3O[C@@H]2O[C@H](CO)[C@@H](O)[C@H](O)[C@H]2O[C@H]2C[C@](C)(NCc3ccc(-c4ccc(Cl)cc4)cc3)[C@@H](O)[C@H](C)O2)Oc2ccc(cc2Cl)[C@H]1O [Oritavancin], the Bliss interaction score with S. aureus DSM 20231 is -0.023; in the test on S. pneumoniae D39V, 0.046; in the test with B. subtilis 168, 0.0299; with S. aureus Newman it was 0.0605.

For `CC[C@H]1OC(=O)[C@H](C)[C@@H](O[C@H]2C[C@@](C)(OC)[C@@H](O)[C@H](C)O2)[C@H](C)[C@@H](O[C@@H]2O[C@H](C)C[C@H](N(C)C)[C@H]2O)[C@](C)(O)C[C@@H](C)C(=O)[C@H](C)[C@@H](O)[C@]1(C)O` [Erythromycin] + CO[C@@H]1[C@@H](OC(N)=O)[C@@H](O)[C@H](Oc2ccc3c(O)c(NC(=O)c4ccc(O)c(CC=C(C)C)c4)c(=O)oc3c2C)OC1(C)C [Novobiocin], the Bliss interaction score in the test on S. aureus DSM 20231 is -0.0443; with S. pneumoniae D39V it was -0.114; in the test on B. subtilis 168, -0.0636; in the test on S. aureus Newman, 0.0699.
